Key:
[1] = test system: IL-1β secretion from human monocytes; assay: IL-1β secretion (ELISA) and maturation (western blot) from human monocytes exposed to P. acnes or inflammasome activators; format: cell-based; settings: upLPS-primed human monocytes, P. acnes MOI=100, 6 h; Glibenclamide or KCl 65 mM added one hour prior, FIG. 3f
Procedure: For Western blotting cell culture supernatants were precipitated by addition of 0.25 volumes of trichloroacetic acid (100% w/v), 10 min incubation on ice and centrifugation for 5 min at 14,000 g. Protein pellet was washed twice with ice-cold acetone, centrifuged as described above and dried at 70° C. Cells were lysed with buffer (10 mM Tris pH 7.5, 1% NP-40, 150 mM NaCl, 5 mM EDTA,) containing a protease inhibitor cocktail. Proteins were separated on a NuPAGE gel in accordance with the manufacturer's protocol and transferred to a Hybond-C-Extra membrane by electroblotting. […] Appropriate HRP-conjugated secondary antibodies were used and proteins were detected using ECL reagent. […]
Human monocytes were primed with upLPS and infected with P. acnes (MOI=100) or stimulated with MSU crystals ([…]) in the presence of vehicle (DMSO) or pan-caspase inhibitor (Z-VAD-fmk, […]) for 24 h (FIG. 2a). IL-1β secretion was determined by ELISA and mature IL-1β release (IL-1β p17) by western blot. […]
THP1 cells were treated with vehicle (DMSO) or cytochalasin D (Cyt. D, […]) for one hour and then incubated with CFSE-labeled P. acnes (MOI=100) for 4 h or left untreated (FIG. 3a). Bacteria uptake was analyzed by FACS. […] IL-1β (FIG. 3f) and TNFα (FIG. 3g) release were determined after 6 h by ELISA. […]

C57BL/6 WT mice = assay: Intradermal P. acnes ear inflammation model in WT mice; format: in vivo, mouse; settings: for ear swelling: intradermal P. acnes 20×10^6 CFU, 24 h, i.p. IL-1Ra 150 mg/kg three times at 8 h intervals or single i.p. anti-IL1β antibody, FIG. 4a; for subcutaneous neutrophil infiltration: intradermal P. acnes, histology (HE), i.p. IL-1Ra or anti-IL1β antibody, FIG. 4d
Procedure: (§1) C57BL/6 mice received three intraperitoneal (i.p.) injections of IL-1 receptor antagonist (IL-1Ra, Anakinra, 150 mg/kg) or PBS at 8 h intervals. One hour after first i.p. injection of IL-1Ra mice received intradermal injections of P. acnes or PBS. TNFα inhibitor (Etanercept) and anti-IL-1β antibody treated mice (Canakinumab, […]) C57BL/6 mice received i.p. injection 24 h before an intradermal injection of P. acnes or PBS. To make bone marrow chimeras indicated mice were lethally irradiated (10 Gy) and subsequently transplanted with indicated bone marrow. After bone marrow reconstitution (8 weeks later) mice were interdermally injected with P. acnes or PBS.
(§2) The ear thickness was measured using a micro caliper before and 24 h after bacterial injection. The percentage of ear thickness was calculated by comparing the ear thickness before and 24 hours after injection.
(§3) WT mice were injected intradermally with P. acnes (20×10^6 CFU/[…] in PBS, left ear) or with an equal amount of PBS (right ear) (FIG. 4a). Mice were treated with vehicle (n=11) or three intraperitoneal injections of IL-1Ra (Anakinra, 150 mg/kg, n=13) at the 8 h intervals or a single i.p. injection of anti-IL1β antibody ([…]) one hour prior to P. acnes or PBS challenge. The ear swelling as measured 24 hrs later is presented. ASC^−/− mice were challenged the same way with P. acnes. The resulting ear swelling (FIG. 4b) and pro- and mature-IL1β in ear extracts (FIG. 4c) are presented. […] WT mice reconstituted with WT (n=8-10), ASC^−/− (n=12) or NLRP3^−/− (n=8) bone marrow were challenged with P. acnes or PBS as described above. The resulting swelling (FIG. 4e) and histology of the infected ear (FIG. 4f) are presented. TLR2^−/− (n=10) were intradermally injected with P. acnes or PBS one hour after treatment with IL-1Ra (n=10) or anti-IL-1β antibody (n=9) as described above. The resulting ear swelling (FIG. 4g) and histology (FIG. 4i) are presented.

TLR2−/− mice = assay: Intradermal P. acnes ear inflammation model in TLR2-deficient mice; format: in vivo, mouse; settings: treatment with IL-1Ra or anti-IL-1β antibody; for development of cutaneous inflammation: histology, FIG. 4i; for development of ear swelling: FIG. 4g
Procedure: as §1, §2, §3

| Molecule | IL-1β release [1] | ear swelling (C57BL/6 WT mice) | subcutaneous neutrophil infiltration (C57BL/6 WT mice) | subcutaneous neutrophil infiltration (C57BL/6 WT mice; listed as IL-1 receptor antagonist) | development of cutaneous inflammation (TLR2−/− mice) | development of ear swelling (TLR2−/− mice) | subcutaneous neutrophil infiltration (C57BL/6 WT mice; listed as monoclonal anti-IL1β antibody) |
| --- | --- | --- | --- | --- | --- | --- | --- |
| [Cl-].[K+] [KCl] | significant reduction | – | – | – | – | – | – |
| COc1ccc(Cl)cc1C(=O)NCCc1ccc(S(=O)(=O)NC(=O)NC2CCCCC2)cc1 [glibenclamide, 5-Chloro-N-[2-[4-(cyclohexylcarbamoylsulfamoyl)phenyl]ethyl]-2-methoxy-benzamide] | significant reduction | – | – | – | – | – | – |
| Anakinra [IL-1Ra] | – | significant reduction | significant reduction | selective blockade | blocked | blocked | – |
| Canakinumab (antibody, V domains shown, antibody fragment, Id; No. 1 and 2) VH: QVQLVESGGGVVQPGRSLRLSCAASGFTFSVYGMNWVRQAPGKGLEWVAIIWYDGDNQYYADSVKGRFTISRDNSKNTLYLQMNGLRAEDTAVYYCARDLRTGPFDYWGQGTLVTVSS VL: EIVLTQSPDFQSVTPKEKVTITCRASQSIGSSLHWYQQKPDQSPKLLIKYASQSFSGVPSRFSGSGSGTDFTLTINSLEAEDAAAYYCHQSSSLPFTFGPGTKVDIK | – | significant reduction | significant reduction | – | blocked | blocked | selective blockade |

Source: patent publication US9707272B2, “Method for the treatment of acne by administering IL-1β antibody” (UNIVERSITAT ZURICH, priority 2011, dated 2017)
